# Test results as given in patent US12391679B2, “Benzamide-substituted bicyclic imidazo- and pyrazolo-fused -pyridine, -pyrimide, and -pyridazine compounds for treatment of inflammatory diseases” (ONCO3R Therapeutics BV, priority 2019, dated 2025).
# Where two headings read alike, the source gives them in different places.
# Key:
# SIK1 = biological target: T1, SIK1 (Homo sapiens, UniProt P57059); assay: ADP-Glo kinase assay, SIK1; assay type: biochemical
# T1 construct: purchased Carna Biosciences 02-131
# T1 sequence (P57059 whole entry): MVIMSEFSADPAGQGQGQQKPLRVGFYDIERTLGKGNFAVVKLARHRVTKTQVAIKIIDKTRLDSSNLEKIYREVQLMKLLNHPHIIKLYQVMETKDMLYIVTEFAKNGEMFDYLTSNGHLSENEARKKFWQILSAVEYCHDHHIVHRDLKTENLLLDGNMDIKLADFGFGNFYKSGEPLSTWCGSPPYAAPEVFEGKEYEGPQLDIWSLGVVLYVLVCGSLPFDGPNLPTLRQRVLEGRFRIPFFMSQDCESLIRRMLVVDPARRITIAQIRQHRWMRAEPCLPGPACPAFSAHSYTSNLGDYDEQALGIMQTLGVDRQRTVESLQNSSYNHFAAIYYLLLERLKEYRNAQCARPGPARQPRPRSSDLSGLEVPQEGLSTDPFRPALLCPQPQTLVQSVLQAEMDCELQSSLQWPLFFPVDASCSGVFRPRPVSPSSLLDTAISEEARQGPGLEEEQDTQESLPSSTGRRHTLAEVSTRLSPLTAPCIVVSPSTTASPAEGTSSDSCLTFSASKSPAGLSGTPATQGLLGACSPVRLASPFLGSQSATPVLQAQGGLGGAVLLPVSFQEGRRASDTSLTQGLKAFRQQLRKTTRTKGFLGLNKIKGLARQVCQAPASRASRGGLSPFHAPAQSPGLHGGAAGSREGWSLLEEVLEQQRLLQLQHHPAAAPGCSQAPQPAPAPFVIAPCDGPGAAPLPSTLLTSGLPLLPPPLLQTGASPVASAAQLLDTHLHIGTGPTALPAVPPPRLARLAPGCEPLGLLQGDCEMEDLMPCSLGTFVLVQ
# Outline: (§1)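 Luminescent ADP-formation read-out: enzyme–substrate mix + ATP, 120 min RT; ATP depletion 40 min RT; ADP→ATP conversion with luciferase/luciferin 30 min RT. Controls: 1% DMSO (negative), 10 μM staurosporine final (positive).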
# SIK2 = biological target: T2, SIK2 (Homo sapiens, UniProt Q9H0K1); assay: ADP-Glo kinase assay, SIK2; assay type: biochemical
# T2 construct: purchased ThermoFisher Scientific PV4792
# T2 sequence (Q9H0K1 whole entry): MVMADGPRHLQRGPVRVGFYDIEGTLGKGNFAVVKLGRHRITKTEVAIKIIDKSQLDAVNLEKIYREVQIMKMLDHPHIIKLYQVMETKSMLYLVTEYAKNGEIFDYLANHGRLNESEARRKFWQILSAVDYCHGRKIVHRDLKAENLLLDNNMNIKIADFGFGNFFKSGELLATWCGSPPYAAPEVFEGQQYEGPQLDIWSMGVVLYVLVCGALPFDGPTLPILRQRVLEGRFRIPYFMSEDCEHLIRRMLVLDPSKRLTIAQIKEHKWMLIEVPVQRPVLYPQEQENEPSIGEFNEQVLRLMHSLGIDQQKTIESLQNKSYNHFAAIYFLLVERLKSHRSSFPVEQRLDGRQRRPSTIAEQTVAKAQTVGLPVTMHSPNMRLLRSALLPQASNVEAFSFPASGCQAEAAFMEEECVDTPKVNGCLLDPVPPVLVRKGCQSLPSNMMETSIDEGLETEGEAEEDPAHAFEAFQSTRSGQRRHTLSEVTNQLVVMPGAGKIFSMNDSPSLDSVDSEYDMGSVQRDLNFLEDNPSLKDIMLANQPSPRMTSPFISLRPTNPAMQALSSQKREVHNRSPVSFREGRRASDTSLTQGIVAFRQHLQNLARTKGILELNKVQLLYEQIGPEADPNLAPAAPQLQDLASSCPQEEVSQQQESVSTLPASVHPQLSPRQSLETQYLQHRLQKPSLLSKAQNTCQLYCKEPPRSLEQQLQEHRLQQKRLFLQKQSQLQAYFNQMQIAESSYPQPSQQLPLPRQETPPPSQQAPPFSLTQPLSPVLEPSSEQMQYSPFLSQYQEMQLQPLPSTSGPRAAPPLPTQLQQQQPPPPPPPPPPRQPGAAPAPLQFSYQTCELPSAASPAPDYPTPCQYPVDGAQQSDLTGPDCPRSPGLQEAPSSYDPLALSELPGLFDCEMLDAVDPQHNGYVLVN
# Outline: as §1
# [1] = tested on: LPS-induced TNFα in monocyte-derived macrophages; assay: MdM assay: LPS-triggered TNFα (ELISA); assay type: cell-based, human
# Experimental: This assay evaluates illustrative compounds of the invention for their inhibition of LPS-induced TNFα and LPS triggered IL-10 secretion in monocyte-derived macrophages. PBMCs are isolated from human blood samples (buffycoats). The buffy coat is aseptically transferred into a 50 mL Falcon tube, and diluted 1/2 in PBS. Falcon tubes are filled with 20 mL LymphoprepTM, on top of which 25 mL of the buffy coat is carefully added, tubes are centrifuged for 35 min at 400 g in temperature controlled centrifuge, without brake, at 25° C. PBMCs are aspirated from the white interface layer between sample and LymphoprepTM. PBMCs are washed five times in PBS. […] PBMCs are centrifuged at 300×g for 10 min and resuspended at a density of 1.0*10^7 cells/80 μL Miltenyi buffer (PBS, pH 7.4, 1% FBS, 2 mM EDTA). Starting from this point of the protocol all steps are performed on ice. 20 μL of CD14+ micro-beads are added per 1.0*10^7 cells, the tube is mixed and incubated for 15 min in the fridge at 4° C. Cell suspension volume is adjusted to total volume of 100 mL using Miltenyi buffer, mixed gently and subsequently centrifuged for 10 min at 300×g. Supernatant is discarded and cell pellet is resuspended in 12 mL of Miltenyi buffer. Four LS columns are placed in the MACS Separator (magnet) from Miltenyi Biotec, and are prewet by rinsing with 3 mL of MACS buffer per column. Three mL of cell suspension is added onto the column (max 1*10^8 of labelled cells/column), and columns are subsequently washed 3 times with 3 mL of Miltenyi buffer. The columns are removed from the magnets, and 5 mL of Miltenyi buffer are added to the column to flush out the CD14+ fraction by pushing the plunger into the column. The flushed fractions are collected in a fresh 50 mL Falcon and volume is adjusted to 30 mL using Miltenyi buffer, cells are centrifuged for 10 min at 300×g. The obtained cell pellet is resuspended in 10 mL RPMI w/o FBS, and cell density is determined using a hematologic analyser (Sysmex XS-500i). […] On day 10, MdMs are triggered and compound is added. A compound dilution plate is made in 100% DMSO by 3-fold dilution of 10 mM stock solution. An intermediate dilution plate (10× final concentration) is made by diluting the compound dilution plate […] in RPMI medium. Medium is carefully removed from cell plates using multichannel pipette, and replaced by 80 μL fresh medium. 10 μL of the 10× final concentration compound is added to the cells and incubated for 1 hour at 37° C. before addition of trigger. No trigger conditions/trigger conditions are spiked with equal final DMSO concentrations of 0.2% DMSO. 10 μL of 10×LPS (final conc. 200 ng/mL) solution are added to all wells except for the 'no trigger wells' where 10 μL medium is added. Supernatant is collected after 2 h (IL-10 determination) and after 20 h (TNFα determination) of LPS triggering. […] The plate is then washed once with PBST (PBS+0.05% Tween20) and once with PBS followed by the addition of 100 μL of blocking buffer (1% Bovine Serum Albumin (BSA) -5% Sucrose) and plates are sealed and incubated for at least 4 h at RT. After washing the plate once with PBST and once with PBS, 40 μL of standard or sample are added (TNFα standard curve is prepared using a 1/2 serial dilution starting from 16000 pg/mL; dilutions are made in dilution buffer (PBS+1% BSA)). Plates are washed twice with PBST, and once with PBS, after which 35 μL of the detection antibody is added (final concentration 0.25 μg/mL diluted in dilution buffer) and plates are incubated for at least 2 h at RT. Plates are washed twice with PBST, and once with PBS, where after 35 μL of Strep-HRP conjugate (0.5 μg/mL final concentration diluted in dilution buffer) is added. […] Plates are washed twice with PBST, and once with PBS. Thereafter, 50 μL of luminol substrate is added to each well (prepared according to manufacturer's instructions), and incubated for 5 min at RT protected from light.
# [2] = Macrophage, human MdM, LPS 200 ng/mL, supernatant after 20 h, inhibition of TNFα, read-out: TNFα EC50
# [3] = ADP-Glo, AMARA 45 μM, 5 μM ATP, 120 min, average IC50
# [4] = human MdM, LPS 200 ng/mL, supernatant after 20 h, inhibition of TNFα, read-out: TNFα EC50
# [5] = Homo sapiens, Macrophage, 20 h, read-out: TNFα EC50 (nM)
IC50 (SIK1),IC50 (SIK2),"EC50 [1, 2]",Compound,also measured
> 500 nM,> 500 nM,100 to 1000 nM,"COc1cc(-c2cnc3cc([C@@](C)(O)C4CC4)ccn23)cc(OC(F)F)c1C(=O)NC1CC1 (single isomer, unassigned) [Cpd 162, N-cyclopropyl-4-[7-(1-cyclopropyl-1-hydroxy-ethyl)imidazo[1,2-a]pyridin-3-yl]-2-(difluoromethoxy)-6-methoxy-benzamide]",
,,,"COc1cc(-c2cnc3cc([C@@](C)(O)C4CC4)ccn23)cc(OC(F)F)c1C(=O)NC1CC1 (single isomer, unassigned) [Cpd 163, N-cyclopropyl-4-[7-(1-cyclopropyl-1-hydroxy-ethyl)imidazo[1,2-a]pyridin-3-yl]-2-(difluoromethoxy)-6-methoxy-benzamide]","IC50 (SIK1; [3]): > 500 nM; IC50 (SIK2; [3]): > 500 nM; EC50 [1, 4]: 100 to 1000 nM"
> 500 nM,> 500 nM,100 to 1000 nM,"CC[C@](C)(O)c1ccn2c(-c3cc(OC)c(C(=O)NC4CC4)c(OC(F)F)c3)cnc2c1 (single isomer, unassigned) [Cpd 164, N-cyclopropyl-2-(difluoromethoxy)-4-[7-(1-hydroxy-1-methyl-propyl)imidazo[1,2-a]pyridin-3-yl]-6-methoxy-benzamide]",
,,,"CC[C@](C)(O)c1ccn2c(-c3cc(OC)c(C(=O)NC4CC4)c(OC(F)F)c3)cnc2c1 (single isomer, unassigned) [Cpd 165, N-cyclopropyl-2-(difluoromethoxy)-4-[7-(1-hydroxy-1-methyl-propyl)imidazo[1,2-a]pyridin-3-yl]-6-methoxy-benzamide]","IC50 (SIK1; [3]): > 500 nM; IC50 (SIK2; [3]): > 500 nM; EC50 [1, 4]: 100 to 1000 nM"
> 500 nM,> 500 nM,1000 to 5000 nM,"COc1cc(-c2cnc3cc([C@@](C)(C#N)CO)ccn23)cc(OC(F)F)c1C(=O)NC1CC1 (single isomer, unassigned) [Cpd 189, 4-[7-(1-cyano-2-hydroxy-1-methyl-ethyl)imidazo[1,2-a]pyridin-3-yl]-N-cyclopropyl-2-(difluoromethoxy)-6-methoxy-benzamide]",
,,,"COc1cc(-c2cnc3cc([C@@](C)(C#N)CO)ccn23)cc(OC(F)F)c1C(=O)NC1CC1 (single isomer, unassigned) [Cpd 190, 4-[7-(1-cyano-2-hydroxy-1-methyl-ethyl)imidazo[1,2-a]pyridin-3-yl]-N-cyclopropyl-2-(difluoromethoxy)-6-methoxy-benzamide]","IC50 (SIK1; [3]): > 500 nM; IC50 (SIK2; [3]): > 500 nM; EC50 [1, 4]: 1000 to 5000 nM"
,,,"COc1cc(-c2cnn3cc(C(C)(C)C#N)ccc23)cc(OC(F)F)c1C(=O)N[C@@H]1C[C@H]1F (single isomer, unassigned) [Cpd 257, 4-[6-(1-cyano-1-methyl-ethyl)pyrazolo[1,5-a]pyridin-3-yl]-2-(difluoromethoxy)-N-(2-fluorocyclopropyl)-6-methoxy-benzamide]","EC50 [1, 5]: 100 to 1000 nM"
,,,"COc1cc(-c2cnn3cc(C(C)(C)C#N)ccc23)cc(OC(F)F)c1C(=O)N[C@@H]1C[C@H]1F (single isomer, unassigned) [Cpd 258, 4-[6-(1-cyano-1-methyl-ethyl)pyrazolo[1,5-a]pyridin-3-yl]-2-(difluoromethoxy)-N-(2-fluorocyclopropyl)-6-methoxy-benzamide]","EC50 ([1]; read-out: TNFα EC50, human MdM, LPS 200 ng/mL, supernatant after 20 h, inhibition of TNFα): 100 to 1000 nM"
> 500 nM,> 500 nM,100 to 1000 nM,"CCC(C)(C#N)c1ccn2c(-c3cc(OC)c(C(=O)NC4CC4)c(OC(F)F)c3)cnc2c1 (stereo not shown) [Cpd 27, 4-[7-(1-cyano-1-methyl-propyl)imidazo[1,2-a]pyridin-3-yl]-N-cyclopropyl-2-(difluoromethoxy)-6-methoxy-benzamide]",
> 500 nM,> 500 nM,100 to 1000 nM,"COc1cc(-c2cnc3cc(C(C)(C)C#N)ccn23)cc(OC)c1C(=O)NC1CC1 [Cpd 28, 4-[7-(1-cyano-1-methyl-ethyl)imidazo[1,2-a]pyridin-3-yl]-N-cyclopropyl-2,6-dimethoxy-benzamide]",
100 to 500 nM,10 to 100 nM,100 to 1000 nM,"COc1cc(-c2cnc3cc(C4(C#N)CC4)ccn23)cc(OC(F)F)c1C(=O)NC1CC1 [Cpd 33, 4-[7-(1-cyanocyclopropyl)imidazo[1,2-a]pyridin-3-yl]-N-cyclopropyl-2-(difluoromethoxy)-6-methoxy-benzamide]",
> 500 nM,> 500 nM,100 to 1000 nM,"COc1cc(-c2cnc3cc(C(C)(C)O)ccn23)cc(OC(F)F)c1C(=O)NC1CC1 [Cpd 35, N-cyclopropyl-2-(difluoromethoxy)-4-[7-(1-hydroxy-1-methyl-ethyl)imidazo[1,2-a]pyridin-3-yl]-6-methoxy-benzamide]",
> 500 nM,> 500 nM,100 to 1000 nM,"COc1cc(-c2cnc3cc(C(C)(C)C#N)ccn23)cc(OC(F)F)c1C(=O)NCC1CC1 [Cpd 39, 4-[7-(1-cyano-1-methyl-ethyl)imidazo[1,2-a]pyridin-3-yl]-N-(cyclopropylmethyl)-2-(difluoromethoxy)-6-methoxy-benzamide]",
100 to 500 nM,10 to 100 nM,1000 to 5000 nM,"COc1cc(-c2cnc3cc(C4CN(C(C)=O)C4)ccn23)cc(OC(F)F)c1C(=O)NC1CC1 [Cpd 63, 4-[7-(1-acetylazetidin-3-yl)imidazo[1,2-a]pyridin-3-yl]-N-cyclopropyl-2-(difluoromethoxy)-6-methoxy-benzamide]",
> 500 nM,100 to 500 nM,100 to 1000 nM,"COc1cc(-c2cnc3cc(C4CCCN(C(=O)OC(C)(C)C)C4)ccn23)cc(OC(F)F)c1C(=O)NC1CC1 (stereo not shown) [Cpd 64, tert-butyl 3-[3-[4-(cyclopropylcarbamoyl)-3-(difluoromethoxy)-5-methoxy-phenyl]imidazo[1,2-a]pyridin-7-yl]piperidine-1-carboxylate]",
,,,"COc1cc(-c2cnn3cc(C(C)(C)C#N)ccc23)cc(OC(F)F)c1C(=O)N[C@@H]1C[C@@H]1F [Cpd 219, 4-[6-(1-cyano-1-methyl-ethyl)pyrazolo[1,5-a]pyridin-3-yl]-2-(difluoromethoxy)-N-[(1R,2S)-2-fluorocyclopropyl]-6-methoxy-benzamide]","EC50 [1, 5]: 100 to 1000 nM"
,,,"[2H]C([2H])([2H])C(C#N)(c1ccc2c(-c3cc(OC)c(C(=O)N[C@@H]4C[C@@H]4F)c(OC(F)F)c3)cnn2c1)C([2H])([2H])[2H] [Cpd 275, 4-[6-[1-cyano-2,2,2-trideuterio-1-(trideuteriomethyl)ethyl]pyrazolo[1,5-a]pyridin-3-yl]-2-(difluoromethoxy)-N-[(1R,2S)-2-fluorocyclopropyl]-6-methoxy-benzamide]","EC50 [1, 5]: 100 to 1000 nM"

Compound,IC50 (SIK1),IC50 (SIK2),"EC50 [1, 2]",also measured
"COc1cc(-c2cnc3cc(C(C)(C)C#N)ccn23)cc(OC(F)F)c1C(=O)NC1CC1 [Cpd 19, 4-[7-(1-cyano-1-methyl-ethyl)imidazo[1,2-a]pyridin-3-yl]-N-cyclopropyl-2-(difluoromethoxy)-6-methoxy-benzamide]",> 500 nM,> 500 nM,100 to 1000 nM,
